Data from PubChem BioAssay (NCI).
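Five compound concentrations were applied to cells in 96-well plates for 48 hours; endpoints were derived by simple linear interpolation of the resulting dose-response curve. The concentration for 50% growth inhibition is given as GI50. TGI: total growth inhibition.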

Assays:
Test in all cases: inhibition of tumour cell growth, NCI panel, 48 h
[1] = system: NCI-H460 lung
[2] = system: U251 CNS
[3] = system: SR leukemia
[4] = system: K-562 leukemia
[5] = system: UACC-62 melanoma
[6] = system: UACC-257 melanoma
[7] = system: TK-10 renal
[8] = system: SNB-19 CNS
[9] = system: COLO 205 colon
[10] = system: SK-MEL-2 melanoma

SMILES	GI50 [1]	TGI [1]	GI50 [2]	TGI [2]	GI50 [3]	TGI [3]	GI50 [4]	TGI [4]	GI50 [5]	TGI [5]	GI50 [6]	TGI [6]	GI50 [7]	TGI [7]	GI50 [8]	TGI [8]	GI50 [9]	TGI [9]	GI50 [10]	TGI [10]
CC1(C)N=C(N)N=C(N)N1c1ccc(Cl)cc1	2.82 µM	> 100 µM	1.19 µM	> 100 µM	20.5 µM	> 100 µM	1.3 µM	> 100 µM	4.09 µM	> 100 µM	75 µM	> 100 µM	9.9 µM	> 100 µM	16.7 µM	> 100 µM	21.4 µM	> 100 µM	> 100 µM	> 100 µM
Oc1c(Cl)cc(Cl)cc1/C=N/Nc1nnc(N/N=C/c2cc(Cl)cc(Cl)c2O)c2ccccc12	0.34 µM	2.26 µM	0.345 µM	> 52.6 µM	0.434 µM	> 100 µM	0.372 µM	> 100 µM	0.318 µM	1.71 µM	1.44 µM	> 100 µM	0.704 µM	> 100 µM	0.505 µM	> 100 µM	0.433 µM	> 100 µM	0.77 µM	> 100 µM
COC(=O)[C@@]1(C)C(=O)CC[C@@H]1C=O	–	> 100 µM	–	> 100 µM	–	> 100 µM	–	> 100 µM	–	> 100 µM	–	> 100 µM	–	> 100 µM	–	> 100 µM	–	> 100 µM	–	> 100 µM
Cc1ccc(C=C2C(Cl)=C(Cl)C(Cl)=C2Cl)cc1	1.66 µM	3.88 µM	0.664 µM	1.96 µM	0.166 µM	0.444 µM	0.202 µM	0.522 µM	0.784 µM	2.74 µM	1.58 µM	4.32 µM	0.972 µM	2.55 µM	1.33 µM	2.68 µM	0.737 µM	2.09 µM	1.9 µM	4.87 µM
CN(C)CCCSc1ccccc1NC1=C(Cl)C(=O)C(Nc2ccccc2SCCCN(C)C)=C(Cl)C1=O	4.49 µM	16.3 µM	2.12 µM	3.69 µM	2.15 µM	6.05 µM	2.08 µM	5.92 µM	1.81 µM	3.51 µM	1.96 µM	3.45 µM	2.22 µM	3.7 µM	3.42 µM	11.4 µM	2.08 µM	4.03 µM	2.3 µM	5.48 µM
COc1cc(-c2nc3sc(C)cn3c2/C=C2\C(=O)Nc3ccccc32)c(Br)c(OC)c1OC	30.5 µM	94.8 µM	22.9 µM	54.8 µM	28.3 µM	> 100 µM	48.4 µM	> 100 µM	34 µM	> 100 µM	27.4 µM	81.5 µM	32.9 µM	77.5 µM	23.9 µM	63.9 µM	25.7 µM	66.2 µM	33.6 µM	> 100 µM
COc1ccc(C2ON(c3ccccc3)CC=C2C)cc1 (stereo not given)	–	> 100 µM	–	> 100 µM	–	> 100 µM	–	> 100 µM	–	> 100 µM	–	> 100 µM	–	> 100 µM	–	> 100 µM	–	> 100 µM	–	78.3 µM
